Results as given in article PMC4672351, “Drug-Drug Interaction Potentials of Tyrosine Kinase Inhibitors via Inhibition of UDP-Glucuronosyltransferases” (Scientific Reports, 2015).

Tests used:
UGT1A9 [1] = biological target: T1, UGT1A9 (Homo sapiens, UniProt O60656); assay: biochemical
T1 sequence (O60656 26-530): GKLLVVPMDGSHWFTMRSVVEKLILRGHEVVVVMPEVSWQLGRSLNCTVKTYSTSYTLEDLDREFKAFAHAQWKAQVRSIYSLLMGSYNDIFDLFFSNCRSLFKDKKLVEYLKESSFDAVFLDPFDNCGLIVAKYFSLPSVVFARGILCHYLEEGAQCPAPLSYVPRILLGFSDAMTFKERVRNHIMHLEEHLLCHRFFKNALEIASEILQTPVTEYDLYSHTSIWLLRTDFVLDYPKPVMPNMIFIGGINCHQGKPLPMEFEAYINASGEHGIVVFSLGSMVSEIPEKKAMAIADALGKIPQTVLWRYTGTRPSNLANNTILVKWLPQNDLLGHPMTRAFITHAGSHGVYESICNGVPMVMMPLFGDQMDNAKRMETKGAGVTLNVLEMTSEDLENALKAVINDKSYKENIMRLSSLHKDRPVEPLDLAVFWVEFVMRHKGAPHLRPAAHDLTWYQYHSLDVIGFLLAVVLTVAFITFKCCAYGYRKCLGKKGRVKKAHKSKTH

[2] = Estimation of in vivo TKI concentrations after repeated oral administration; set-up: species or system human; details: calculated from literature PK parameters
UGT2B7 = biological target: T2, UGT2B7 (Homo sapiens, UniProt P16662); assay: Inhibition of 4-MU glucuronidation by recombinant UGT2B7; details: recombinant UGT2B7, pH 7.4, probe 4-MU
T2 sequence (P16662 24-529): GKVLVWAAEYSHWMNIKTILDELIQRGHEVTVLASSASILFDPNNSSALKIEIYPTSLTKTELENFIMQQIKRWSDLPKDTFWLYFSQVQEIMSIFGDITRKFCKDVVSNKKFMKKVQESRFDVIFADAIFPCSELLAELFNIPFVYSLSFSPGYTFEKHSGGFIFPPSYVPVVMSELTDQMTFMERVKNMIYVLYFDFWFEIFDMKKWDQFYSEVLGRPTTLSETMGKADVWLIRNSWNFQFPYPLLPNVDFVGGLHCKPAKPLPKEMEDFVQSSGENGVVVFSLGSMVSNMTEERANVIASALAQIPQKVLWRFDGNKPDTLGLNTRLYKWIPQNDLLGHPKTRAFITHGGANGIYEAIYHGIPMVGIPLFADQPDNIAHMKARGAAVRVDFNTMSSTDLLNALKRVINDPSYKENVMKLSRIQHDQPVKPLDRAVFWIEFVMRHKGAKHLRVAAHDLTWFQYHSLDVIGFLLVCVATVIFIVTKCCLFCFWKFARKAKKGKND

UGT1A8 = biological target: T3, UGT1A8 (Homo sapiens, UniProt Q9HAW9); assay: Inhibition of 4-MU glucuronidation by recombinant UGT1A8; details: recombinant UGT1A8, pH 7.4, probe 4-MU
T3 sequence (Q9HAW9 26-530): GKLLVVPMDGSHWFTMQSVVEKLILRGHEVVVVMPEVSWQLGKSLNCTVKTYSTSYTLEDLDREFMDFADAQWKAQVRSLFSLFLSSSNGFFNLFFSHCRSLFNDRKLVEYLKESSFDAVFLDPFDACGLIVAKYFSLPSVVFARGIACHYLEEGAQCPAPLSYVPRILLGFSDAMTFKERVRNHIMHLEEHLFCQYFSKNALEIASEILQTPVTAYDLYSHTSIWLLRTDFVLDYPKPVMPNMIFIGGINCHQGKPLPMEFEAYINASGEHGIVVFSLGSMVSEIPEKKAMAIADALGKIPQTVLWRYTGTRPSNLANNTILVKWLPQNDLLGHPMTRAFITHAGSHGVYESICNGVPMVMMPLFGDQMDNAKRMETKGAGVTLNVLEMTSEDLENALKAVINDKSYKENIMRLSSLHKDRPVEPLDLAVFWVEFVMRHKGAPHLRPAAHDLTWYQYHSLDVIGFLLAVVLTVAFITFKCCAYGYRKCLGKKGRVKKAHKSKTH

UGT1A9 [3] = biological target: T1, UGT1A9
UGT1A7 = biological target: T4, UGT1A7 (Homo sapiens, UniProt Q9HAW7); assay: Prediction of DDI risk (AUCi/AUC) from in vitro data, UGT1A7 substrates; set-up: purchased BD Gentest (Woburn, MA); host or cells: baculovirus-infected insect cells
T4 sequence (Q9HAW7 26-530): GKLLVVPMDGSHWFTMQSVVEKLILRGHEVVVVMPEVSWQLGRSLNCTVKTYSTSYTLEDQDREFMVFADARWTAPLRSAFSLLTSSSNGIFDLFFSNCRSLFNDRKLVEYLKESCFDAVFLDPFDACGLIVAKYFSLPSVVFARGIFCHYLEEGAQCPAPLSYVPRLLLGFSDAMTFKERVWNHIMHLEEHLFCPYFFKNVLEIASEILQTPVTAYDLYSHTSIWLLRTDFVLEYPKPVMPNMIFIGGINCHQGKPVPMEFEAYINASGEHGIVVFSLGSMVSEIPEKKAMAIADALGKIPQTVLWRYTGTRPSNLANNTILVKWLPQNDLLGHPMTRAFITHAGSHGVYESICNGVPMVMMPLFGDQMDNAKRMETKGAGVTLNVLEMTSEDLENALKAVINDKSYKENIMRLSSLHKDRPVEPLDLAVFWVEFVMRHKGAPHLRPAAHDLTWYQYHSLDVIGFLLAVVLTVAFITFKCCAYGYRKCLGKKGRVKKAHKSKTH

UGT1A3 = biological target: T5, UGT1A3 (Homo sapiens, UniProt P35503); assay: Inhibition of 4-MU glucuronidation by recombinant UGT1A3; details: recombinant UGT1A3, pH 7.4, probe 4-MU
T5 sequence (P35503 29-534): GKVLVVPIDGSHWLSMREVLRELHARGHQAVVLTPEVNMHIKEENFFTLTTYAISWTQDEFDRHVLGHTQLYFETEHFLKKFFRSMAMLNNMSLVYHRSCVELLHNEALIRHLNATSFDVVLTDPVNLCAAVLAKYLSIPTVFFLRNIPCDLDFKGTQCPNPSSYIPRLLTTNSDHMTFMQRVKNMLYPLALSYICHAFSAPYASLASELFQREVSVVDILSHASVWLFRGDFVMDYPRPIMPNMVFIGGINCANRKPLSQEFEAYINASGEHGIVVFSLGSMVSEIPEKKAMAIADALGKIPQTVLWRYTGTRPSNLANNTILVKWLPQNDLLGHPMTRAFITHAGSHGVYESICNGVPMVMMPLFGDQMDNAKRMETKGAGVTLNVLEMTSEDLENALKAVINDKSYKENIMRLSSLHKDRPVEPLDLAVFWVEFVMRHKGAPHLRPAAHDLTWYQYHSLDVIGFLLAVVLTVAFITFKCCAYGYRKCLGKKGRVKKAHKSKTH

Row | SMILES | IC50 (UGT1A9 [1]) [µM] | Calculated Concentrations Iav (average systemic plasma concentration) [2] [µM] | Calculated Concentrations Iin,u (maximum unbound hepatic input concentration) [2] [µM] | Calculated Concentrations Imax,u (maximum unbound systemic plasma concentration) [2] [µM] | activity at 120 min, 100 µM (UGT2B7) [%] | activity at 30 min, 100 µM (UGT1A8) [%] | Predicted AUCi/AUC ratio of UGT1A9 substrates (UGT1A9 [3]; fm is 1) | Predicted AUCi/AUC ratio of UGT1A7 substrates (UGT1A7; fm is 1) | activity at 75 min, 100 µM (UGT1A3) [%] | Predicted increase in the AUC of substrate by UGT1A7 inhibition (UGT1A7; fm not given, Imax,u used) [%] | Ki (UGT1A9 [1]) [µM] | Predicted increase in the AUC of substrate by UGT1A9 inhibition (UGT1A9 [3]; fm not given)
1 | CNC(=O)c1ccccc1Sc1ccc2c(/C=C/c3ccccn3)n[nH]c2c1 [Axitinib, axitinib] | 3.6 ± 0.7 | 0.024 | 0.00086 | 0.00067 | 55.9 ± 9.7 | 54.6 ± 2.4 | ~1 | ~1 | 47.8 ± 12.8 | – | – | –
2 | CS(=O)(=O)CCNCc1ccc(-c2ccc3ncnc(Nc4ccc(OCc5cccc(F)c5)c(Cl)c4)c3c2)o1 [Lapatinib, lapatinib] | – | 0.79 | 0.12 | 0.011 | 90.5 ± 1 | 73.5 ± 10.6 | – | – | 96.5 ± 7.5 | ~1 | – | –
3 | COc1cc2c(Nc3ccc(Br)cc3F)ncnc2cc1OCC1CCN(C)CC1 [Vandetanib, vandetanib] | 5 ± 0.4 | 1.99 | 0.23 | 0.12 | 49.8 ± 3.7 | 56 ± 6.3 | – | – | 104 ± 2.1 | – | 9 ± 1.2 | about 2%
